Measured values as given in patent US20230310573A1, “Stabilized Vaccine Compositions” (priority 2020, published 2023).

Legend:
[1] = target: ectodomain of H1N1 A/Brisbane/59/2007 (SEQ ID NO: 7) (Influenza A virus, UniProt P03452); test: Heat stress of influenza A HA ectodomain, trimer and monomer content by analytical SEC; assay type: physicochemical; settings: 6 weeks at 40 degree Celsius; 1:6 HA trimer:compound ratio
[2] = target: T1, UFV170091 (HA of B/Massachussetts/2/12) (Influenza B virus, UniProt P03460); test: Melting temperature (Tm50) of influenza B HA trimer by DSF; assay type: physicochemical; settings: 1:6 HA trimer:compound ratio
T1 construct: Ectodomain of wild type HA of B/Massachussetts/2/12 fused to a foldon domain at the C-terminus; His-tag (C); made in house; host or cells: ExpiCHO

[3] = target: T2, UFV180300 (HA of B/Colorado/06/2017) (Influenza B virus, UniProt P03460); test: as above; assay type: physicochemical; settings: 1:6 HA trimer:compound ratio
T2 construct: SortA (sortase) tag (C); His-tag (C); made in house; host or cells: ExpiCHO

[4] = target: UFV180933 (HA of B/Brisbane/60/08) (Influenza B virus, UniProt P03460); assay type: cell-based; settings: 1:90 HA trimer:compound ratio

In the case of `N#CCCCn1c(CN2C(=O)C3(CN(C(=O)C4(O)CC4)C3)c3ccccc32)cc2cc(Cl)ccc21` [Compound XV, 4-[5-chloro-2-[[1-(1-hydroxycyclopropanecarbonyl)-2′-oxo-spiro[azetidine-3,3′-indoline]-1′-yl]methyl]indol-1-yl]butanenitrile], the “trimer content after heat stress (SEC)” value [1] is reported as “preserved the trimer content”.

With `c1ccc(CN2CCC(Nc3ccccc3)(c3ccccc3)CC2)cc1` [XXVII, 1-benzyl-N,4-diphenyl-piperidin-4-amine] the “increase of the Tm (DSF)” value [2] was 0.5 °C, the “increase of the Tm (DSF)” value [3] was 1 °C and the “monomer and trimer content in supernatant (SEC)” value [4] was “hardly monomer and mostly trimer”.
